Legend:
[1] = tested on: (TTAGGG)4 human telomeric G4 DNA; assay: Fluorescence spectroscopy, FANCJ AKKQ binding to (TTAGGG)4; details: tryptophan fluorescence quenching, peptide 5 µM, excitation 280 nm, 300-450 nm; Buffer H (20 mM HEPES pH 7.5, 150 mM KCl, 5 mM TCEP, 5% (v/v) glycerol), 25 °C; 1:1 model; average and 95% confidence interval, n = 3
Description: (§1) Equilibrium binding experiments were performed on a Cary Eclipse Fluorescence Spectrophotometer (Agilent Technologies, Santa Clara, CA, USA). Samples were maintained at 25 °C with a PCB 1500 water peltier system (Agilent). FANCJ peptide (5 µM) was placed in a microcuvette. Fluorescence spectra were collected from 300 nm to 450 nm (λexcitation = 280 nm) with slit widths set to 5 nm. A scan of Buffer H was used as a baseline. DNA substrate was titrated into the cuvette, and each mixture was equilibrated for 3 min prior to data collection. The extent of fluorescence quenching observed (ΔFobs) was calculated using the following equation, where F0 was the total fluorescence signal from the FANCJ peptide alone, and Fi was the total fluorescence intensity upon the ith addition of DNA:(1) ΔFobs=F0−Fi/F0
(§2) Binding isotherms were generated by plotting ΔFobs versus the total DNA concentration after correcting for sample dilution. The resulting curves were fit to a 1:1 interaction model using Scientist 3.0 software (Micromath, St. Louis, MO, USA) based on the following formulas, where A was the amplitude of fluorescence quenching and K was the equilibrium association constant. […] Fluorescence titrations were performed in triplicate. The reported values were determined from the average and 95% confidence interval of the three independent data-sets. […]

[2] = tested on: (TTAGGG)4 8oxo1; assay: Fluorescence spectroscopy, FANCJ AKKQ binding to (TTAGGG)4 8oxo1; set-up: species or system human; details: tryptophan fluorescence quenching, peptide 5 µM, excitation 280 nm; Buffer H (pH 7.5, 150 mM KCl), 25 °C; 1:1 model; 8oxoG at first guanine; average and 95% confidence interval, n = 3
Description: as §1, §2

[3] = tested on: (TTAGGG)4 8oxo5; assay: Fluorescence spectroscopy, FANCJ AKKQ binding to (TTAGGG)4 8oxo5; set-up: species or system human; details: tryptophan fluorescence quenching, peptide 5 µM, excitation 280 nm; Buffer H (pH 7.5, 150 mM KCl), 25 °C; 1:1 model; 8oxoG at fifth guanine; average and 95% confidence interval, n = 3
Description: as §1, §2

[4] = tested on: (GGGT)4; assay: Fluorescence spectroscopy, FANCJ AKKQ binding to (GGGT)4; details: tryptophan fluorescence quenching, peptide 5 µM, excitation 280 nm; Buffer H (pH 7.5, 150 mM KCl), 25 °C; 1:1 model; average and 95% confidence interval, n = 3
Description: as §1, §2

[5] = tested on: (GGGT)4 8oxo1; assay: Fluorescence spectroscopy, FANCJ AKKQ binding to (GGGT)4 8oxo1
Description: as §1, §2

[6] = tested on: (GGGT)4 8oxo5; assay: Fluorescence spectroscopy, FANCJ AKKQ binding to (GGGT)4 8oxo5; details: tryptophan fluorescence quenching, peptide 5 µM, excitation 280 nm; Buffer H (pH 7.5, 150 mM KCl), 25 °C; 1:1 model; 8oxoG at fifth guanine; average and 95% confidence interval, n = 3
Description: as §1, §2

[7] = tested on: bioPEG12-(TTAGGG)4; assay: Biolayer interferometry (BLI), AKKQ binding to bioPEG12-(TTAGGG)4; set-up: species or system human
Description: (§3) BLI assays were performed on a BLItz instrument (Pall Fortébio, Fremont, CA, USA). Streptavidin-coated biosensors were purchased from Pall Fortébio (Lot 1906281). Biosensors were hydrated in Buffer H for 10 min, and the baseline optical interference was recorded. A total of 150 nM of biotinylated G4 DNA or FANCJ PIP peptide was loaded onto the sensors over 2 min, after which they were washed with Buffer H. Binding reactions were initiated by placing the biosensors in analyte solutions at the indicated concentrations. After their interactions had reached an equilibrium, the sensors were returned to buffer to monitor dissociation of the complexes. Experiments were repeated in triplicate. BLI binding isotherms were generated by plotting the plateau values of the association phase versus total analyte concentration. These curves were fit to a 1:1 interaction model, as described above. The parameters reported were obtained from the average and 95% confidence interval of the three data sets.
(§4) We next validated our fluorescence spectroscopy results by biolayer interferometry (BLI). This technique measures the optical thickness of a biosensor surface, which can be used to examine the association and dissociation reactions of macromolecules. […] The optical interference pattern of the sensor alone was measured in Buffer H as an initial baseline (phase 1). […]

[8] = tested on: bioPEG12-(TTAGGG)4-8oxo1; assay: Biolayer interferometry (BLI), AKKQ binding to bioPEG12-(TTAGGG)4-8oxo1; set-up: species or system human; details: 150 nM biotinylated G4 DNA loaded on streptavidin biosensor, peptide 32-0.5 µM, Buffer H (pH 7.5, 150 mM KCl), 25 °C, plateau Δλ, 1:1 model, average and 95% confidence interval, n = 3
Description: as §3, §4

[9] = tested on: bioPEG12-(TTAGGG)4-8oxo5; assay: Biolayer interferometry (BLI), AKKQ binding to bioPEG12-(TTAGGG)4-8oxo5; set-up: species or system human; details: 150 nM biotinylated G4 DNA loaded on streptavidin biosensor, peptide 32-0.5 µM, Buffer H (pH 7.5, 150 mM KCl), 25 °C, plateau Δλ, 1:1 model, average and 95% confidence interval, n = 3
Description: as §3, §4

K (equilibrium association constant) [1]: 1.6 ± 0.7 × 10^6 M^−1 | K8oxo1 (equilibrium association constant) [2]: 1.3 ± 0.4 × 10^6 M^−1 | K8oxo5 (equilibrium association constant) [3]: 1.4 ± 0.5 × 10^6 M^−1 | K (equilibrium association constant) [4]: 2.7 ± 0.4 × 10^5 M^−1 | K8oxo1 (equilibrium association constant) ([5]; tryptophan fluorescence quenching, peptide 5 µM, excitation 280 nm, Buffer H (pH 7.5, 150 mM KCl), 25 °C, 1:1 model, 8oxoG at first guanine, average and 95% confidence interval, n = 3): 7.7 ± 0.7 × 10^5 M^−1 | K8oxo5 (equilibrium association constant) [6]: 4.4 ± 0.6 × 10^5 M^−1 | K (equilibrium constant) ([7]; BLI, 150 nM biotinylated G4 DNA loaded on streptavidin biosensor, peptide 64-0.5 µM, Buffer H (pH 7.5, 150 mM KCl), 25 °C, plateau Δλ, 1:1 model, average and 95% confidence interval, n = 3): 9.4 ± 1.1 × 10^4 M^−1 | K8oxo1 (equilibrium constant) [8]: 2.3 ± 0.8 × 10^5 M^−1 | K8oxo5 (equilibrium constant) [9]: 1.8 ± 0.2 × 10^5 M^−1
Sequence: SPEKTTLAAKLSAKKQASIW [FANCJ AKKQ]
Increase of equilibrium constant by oxidative damage ([5]; (GGGT)4 8oxo1 and 8oxo5 relative to (GGGT)4, fluorescence): 1.5-3 fold | BLI binding constants compared to the fluorescence measurements ([7]; human telomeric G4, native, 8oxo1 and 8oxo5): about one order of magnitude weaker compared to the fluorescence measurements

Source: article PMC7017153, “Assembly of a G-Quadruplex Repair Complex by the FANCJ DNA Helicase and the REV1 Polymerase” (Genes, 2019)
